Series [1] deals with New Zealand White rabbits.
The conditions of series [2]: water-based formulation at neutral pH; cited from earlier work.
The nature of series [3]: Miscibility of semi-fluorinated alkane F6H8 with MCT or light liquid paraffin oil. The class given is physicochemical. How it is done: F6H8, a semi-fluorinated alkane was tested for miscibility with MCT with the ratio of F6H8 to MCT from 1:99 to 99:1. […] F6H8, a semi-fluorinated alkane was tested for miscibility with light liquid paraffin oil with the ratio of F6H8 to light liquid paraffin oil from 1:99 to 99:1.

`CN1[C@@H]2CC[C@H]1C[C@@H](OC(=O)C(CO)c1ccccc1)C2` (stereo partly drawn) [Atropine, atropine]: the “Magnitude of pupil size changes versus atropine sulfate in aqueous solution” value in series [1] (atropine in F6H8-based formulation, at comparable doses) is “comparable”. Further, the “Dose response in pupil size dilation” value in series [1] (from 0.01% to 0.05% atropine, Day 7 and Day 22) was “dose response in pupil size dilation was observed”. Besides, the Pupil size dilation result in series [1] (topical ocular instillation twice daily, 40 μL to left eye, Day 7 and Day 22, CBT-009 at 0.01%, […] and 0.05% in […] phenylethyl alcohol, 10% MCT, 89.75% F6H8, comparator 0.03%) is “pupil size dilation was observed”. The “Shelf life of the product” value in series [2] is listed as “less than 1 year”.
Take `CCCCCCCCC(F)(F)C(F)(F)C(F)(F)C(F)(F)C(F)(F)C(F)(F)F` [F6H8, perfluorohexyloctane]: the “Miscibility with MCT” value in series [3] (ratio of F6H8 to MCT from 1:99 to 99:1) was “miscible with MCT at all ratios”. For the same compound, in series [3] (ratio of F6H8 to light liquid paraffin oil from 1:99 to 99:1), the “Miscibility with light liquid paraffin oil” value is “miscible with light liquid paraffin oil at all ratios”.

(Values after US12070501B1, “Topical ophthalmological compositions” (ADS Therapeutics LLC, priority 2021, dated 2024).)
